# Laboratory results reported in article PMC9124820, “In vitro evaluation of fenfluramine and norfenfluramine as victims of drug interactions” (Pharmacology Research & Perspectives, 2022).
# System: other rCYP450s
# Test: Reaction phenotyping, other rCYP450s of the panel (not given)
# Format: in vitro ADME, human
# Experimental: For FFA and nFFA reaction phenotyping experiments, LC‐MS/MS experiments were performed using an API 4000 QTRAP or QTRAP 5500 mass spectrometer (SCIEX) with positive electrospray ionization. Chromatography was performed using an Atlantis dC18 analytical column (100 × 2.1 mm, 5 µm; Waters Corporation). Mobile phases were 0.2% v/v formic acid in water and 0.2% v/v formic acid in methanol. FFA and nFFA were eluted at a flow rate of 0.5 mL/min with a linear gradient of 40%−95% methanol from 0.20−2.1 min. The mass transitions monitored were 232.0>109.0 for FFA, 204.0>159.0 for nFFA, 348.0>330.0 for 1’‐hydroxymidazolam‐d4 internal standard (FFA reaction phenotyping), and 262.0>244.0 for hydroxybupropion‐d6 internal standard (nFFA reaction phenotyping). Analyst Instrument Control and Data Processing software (v. 1.6.1) was used for collecting and integrating data (SCIEX). Calibration curves ranging from 1.25 µM−0.01 µM were used to quantify nFFA. Relative quantitation was used to approximate the amount of FFA test material used.
# Methods used to evaluate the role of CYP450s in the metabolism of FFA have been described.[22], [23], [24] To determine whether FFA and nFFA were substrates for specific CYP450s, either FFA (1 and 10 μM) or nFFA (0.1 and 1 μM) was incubated via a Tecan Liquid Handling System (Tecan Life Sciences, Männedorf, Switzerland) in duplicate with 25 pmol of rCYP1A2, rCYP2B6, rCYP2C8, rCYP2C9, rCYP2C19, rCYP2D6, or rCYP3A4, and incubation at 37°C. The 200‐μL incubation mixtures contained potassium phosphate buffer (50 mM, pH 7.4), MgCl2 (3 mM), and EDTA (1 mM, pH 7.4), and an NADPH‐generating system. Incubations of FFA with control bactosomes and membranes containing human NADPH‐CYP450 oxidoreductase, but not human CYP450 (reductase control), served as negative controls. FFA or nFFA was added to the incubation mixtures in water (1% v/v). […] Supernatant fractions were analyzed by LC‐MS/MS.
Structure (SMILES),"FFA loss (1 μM FFA, rCYP450s other than rCYP2D6, rCYP2C19, rCYP1A2)","substrate loss (10 μM FFA, rCYP450s other than rCYP2D6, rCYP2C19, rCYP1A2, rCYP2B6)","contribution to nFFA metabolism (nFFA 0.1 μM and 1 μM, enzymes other than rCYP1A2, rCYP2B6, rCYP2C19, rCYP2D6)"
"CCNC(C)Cc1cccc(C(F)(F)F)c1 (racemic) [FFA, (RS)‐ethyl (α‐methyl‐3‐trifluoromethylphenethyl)amine]",< 10%,< 15%,
"CC(N)Cc1cccc(C(F)(F)F)c1.Cl (stereo not drawn) [nFFA, 1‐(3‐(trifluoromethyl)phenyl)propan‐2‐amine hydrochloride]",,,smaller contributions
